The test has as its target T1, full length active recombinant SYK enzyme (Homo sapiens, UniProt P43405).
T1 construct: full length active recombinant SYK enzyme (Millipore, Calif.); purchased Millipore
Nature of the test: Inhibition of Syk tyrosine phosphorylation activity (LANCE TR-FRET kinase assay). The test is classed as biochemical. As to conditions: 1 nM SYK, 550 nM substrate, 100 μM ATP, 1 hour room temperature. A general note: TR-FRET usually uses a lanthanide donor and a delayed reading to cut background.

SMILES strings stand for the structures.

For orientation: IC50 means the concentration at which inhibition is half-maximal.

For the compound `NC(=O)c1cnc(N[C@H](C2CC2)C2(N)CC2)nc1Nc1csc2ncccc12` [Example 171, (R)-2-(1-(1-aminocyclopropyl)(cyclopropyl)methylamino)-4-(thieno[2,3-b]pyridine-3-ylamino)pyrimidine-5-carboxamide], the concentration for half-maximal inhibition (IC50) fell in the range of 1 to 10 nM. To `CC[C@@H](Nc1ncc(C(N)=O)c(Nc2ccc3ccncc3c2)n1)C(N)=O` [Example 71, (R)-2-(1-amino-1-oxobutan-2-ylamino)-4-(isoquinolin-7-ylamino)pyrimidine-5-carboxamide] belongs 10 to 100 nM; to `CC[C@@H](Nc1ncc(C(N)=O)c(Nc2ccc3cccnc3c2)n1)C(N)=O` [Example 57, (R)-2-((1-amino-1-oxobutan-2-yl)amino)-4-(quinolin-7-ylamino)pyrimidine-5-carboxamide], 10 to 100 nM.

As to `CCn1ccc2c(Nc3nc(N[C@@H](CN)C4CC4)ncc3C(N)=O)cccc21` [Example 88, (R)-2-(2-amino-1-cyclopropylethylamino)-4-(1-ethyl-1H-indol-4-ylamino)pyrimidine-5-carboxamide], the half-maximal inhibitory concentration (IC50) was 1 to 10 nM. As for `CC[C@@H](Nc1ncc(C(N)=O)c(Nc2cccc(C)c2)n1)C1(N)CC1` [Example 126, (R)-2-(1-(1-aminocyclopropyl)propylamino)-4-(m-tolylamino)pyrimidine-5-carboxamide], the figure is under 1 nM. As for `C[C@@H](Nc1ncc(C(N)=O)c(Nc2cccc3c2ccn3C)n1)C1CC1` [Example 110, (R)-2-(1-cyclopropylethylamino)-4-(1-methyl-1H-indol-4-ylamino)pyrimidine-5-carboxamide], the figure is 100 to 1000 nM; as for `CCO[C@@H]1CCCC[C@H]1Nc1ncc(C(N)=O)c(Nc2cccc(-n3nccn3)c2)n1` [Example 6], 100 to 1000 nM; as for `NC(=O)c1cnc(N[C@H](C2CC2)C2(N)CC2)nc1Nc1cccc(-c2ncccn2)c1` [Example 135, (R)-2-(1-(1-aminocyclopropyl)(cyclopropyl)methylamino)-4-(3-(pyrimidin-2-yl)phenylamino)pyrimidine-5-carboxamide], 1 to 10 nM. To `Cn1ccc2c(Nc3nc(N[C@@H]4CCCC[C@@H]4O)ncc3C(N)=O)cccc21` [Example 107, 2-((1R,2S)-2-hydroxycyclohexylamino)-4-(1-methyl-1H-indol-4-ylamino)pyrimidine-5-carboxamide] belongs 100 to 1000 nM; to `NC(=O)c1cnc(N[C@@H]2CCC[C@@H](F)[C@@H]2N)nc1Nc1cccc(-n2nccn2)c1` (racemic) [Example 242, (±)-4-(3-(2H-1,2,3-triazol-2-yl)phenylamino)-2-((1R,2R,3R)-2-amino-3-fluorocyclohexylamino)pyrimidine-5-carboxamide], 10 to 100 nM; to `CCO[C@H]1CCCC[C@H]1Nc1ncc(C(N)=O)c(Nc2cccc(-n3nccn3)c2)n1` [Example 7, 4-(3-(2H-1,2,3-triazol-2-yl)phenylamino)-2-((1R,2S)-2-ethoxycyclohexylamino)pyrimidine-5-carboxamide], 100 to 1000 nM. As for `NC(=O)c1cnc(N[C@@H]2CCCC[C@@H]2n2ccnn2)nc1Nc1cccc(-n2nccn2)c1` [Example 9, 2-((1R,2S)-2-(1H-1,2,3-triazol-1-yl)cyclohexylamino)-4-(3-(2H-1,2,3-triazol-2-yl)phenylamino)pyrimidine-5-carboxamide], the IC50 fell in the range of 100 to 1000 nM. To `Cc1ccc(Nc2ncc(C(N)=O)c(N[C@H]3CC[C@@H](N)CC3)n2)cc1` [Example 184, 4-(4-aminocyclohexylamino)-2-(p-tolylamino)pyrimidine-5-carboxamide] belongs 10 to 100 nM. To `Cn1ccc2c(Nc3nc(NCC4CCCC4)ncc3C(N)=O)cccc21` [Example 111, 2-(cyclopentylmethylamino)-4-(1-methyl-1H-indol-4-ylamino)pyrimidine-5-carboxamide] belongs 100 to 1000 nM; to `NC(=O)c1cnc(N[C@@H]2CCCC[C@@H]2N)nc1Nc1ccc(Br)c(-n2nccn2)c1` [Example 20, 2-((1R,2S)-2-aminocyclohexylamino)-4-(4-bromo-3-(2H-1,2,3-triazol-2-yl)phenylamino)pyrimidine-5-carboxamide], 10 to 100 nM. To `NC(=O)c1cnc(N[C@@H]2CCCC(F)(F)[C@@H]2N)nc1Nc1cccc2c1ccn2CC(F)(F)F` [Example 93, 2-((1R,2R)-2-amino-3,3-difluorocyclohexylamino)-4-(1-(2,2,2-trifluoroethyl)-1H-indol-4-ylamino)pyrimidine-5-carboxamide] belongs 10 to 100 nM; to `CC[C@@H](Nc1ncc(C(N)=O)c(Nc2csc3ncccc23)n1)C(N)=O` [Example 55, (R)-2-((1-amino-1-oxobutan-2-yl)amino)-4-(thieno[2,3-b]pyridin-3-ylamino)pyrimidine-5-carboxamide], 10 to 100 nM. As to `NC(=O)c1cnc(N[C@@H]2CCC[C@H](F)[C@@H]2N)nc1Nc1cccc(-n2cccn2)c1` [Example 238, 4-(3-(1H-pyrazol-1-yl)phenylamino)-2-((1R,2R,3S)-2-amino-3-fluorocyclohexylamino)pyrimidine-5-carboxamide], the IC50 is 10 to 100 nM. To `Cc1cccc(Nc2nc(N[C@@H]3CC[C@@H](C(=O)N4CCCC4)C[C@@H]3N)ncc2C(N)=O)c1` (racemic) [Example 193, 2-((1R,2S,4R)-2-amino-4-(pyrrolidine-1-carbonyl)cyclohexylamino)-4-(m-tolylamino)pyrimidine-5-carboxamide] belongs 10 to 100 nM; to `Cc1cccc(Nc2nc(N[C@H](C(C)C)C3(N)CC3)ncc2C(N)=O)c1` [Example 144, (R)-2-(1-(1-aminocyclopropyl)-2-methylpropylamino)-4-(m-tolylamino)pyrimidine-5-carboxamide], 1 to 10 nM; to `CC[C@@H](Nc1ncc(C(N)=O)c(Nc2cnc3ccccc3c2)n1)C1(N)CC1` [Example 154, (R)-2-(1-(1-aminocyclopropyl)propylamino)-4-(quinolin-3-ylamino)pyrimidine-5-carboxamide], 1 to 10 nM. To `CC(C)[C@@H](Nc1ncc(C(N)=O)c(Nc2cc(F)cc(F)c2)n1)C1(N)CC1` [Example 160, (R)-2-(1-(1-aminocyclopropyl)-2-methylpropylamino)-4-(3,5-difluorophenylamino)pyrimidine-5-carboxamide] belongs 10 to 100 nM.

In the case of `NC(=O)c1cnc(NC2CCCc3cccnc32)nc1Nc1cccc(-n2nccn2)c1` (racemic) [Example 18, 4-(3-(2H-1,2,3-triazol-2-yl)phenylamino)-2-(5,6,7,8-tetrahydroquinolin-8-ylamino)pyrimidine-5-carboxamide], the IC50 was 100 to 1000 nM. For `Cc1cccc(Nc2nc(N[C@H](C)C3(N)CC3)ncc2C(N)=O)c1` [Example 145, (R)-2-(1-(1-aminocyclopropyl)ethylamino)-4-(m-tolylamino)pyrimidine-5-carboxamide], the half-maximal inhibitory concentration (IC50) is 1 to 10 nM. As for `NC(=O)c1cnc(N[C@@H]2CCCC(F)(F)[C@@H]2N)nc1Nc1ccc2ncsc2c1` [Example 29, 2-(((1R,2R)-2-amino-3,3-difluorocyclohexyl)amino)-4-(benzo[d]thiazol-6-ylamino)pyrimidine-5-carboxamide], the figure is 10 to 100 nM.

As to `CCC(Nc1ncc(C(N)=O)c(Nc2cccc(C)c2)n1)C1(N)CC1` (racemic) [Example 125, (±)-2-(1-(1-aminocyclopropyl)propylamino)-4-(m-tolylamino)pyrimidine-5-carboxamide], the IC50 is 1 to 10 nM. With `N#CCN1CC[C@@H](Nc2ncc(C(N)=O)c(Nc3cccc(-n4nccn4)c3)n2)C1` [Example 224], the IC50 lay within 100 to 1000 nM. To `Cn1ccc2c(Nc3nc(NC4(C#N)CC4)ncc3C(N)=O)cccc21` [Example 109, 2-(1-cyanocyclopropylamino)-4-(1-methyl-1H-indol-4-ylamino)pyrimidine-5-carboxamide] belongs 100 to 1000 nM; to `CCn1ccc2c(Nc3nc(Nc4ccc5c(c4)CC(=O)N5)ncc3C(N)=O)cccc21` [Example 113, 4-(1-ethyl-1H-indol-4-ylamino)-2-(2-oxoindolin-5-ylamino)pyrimidine-5-carboxamide], 10 to 100 nM. To `NC(=O)c1cnc(N[C@@H]2CCC[C@H](F)[C@@H]2N)nc1Nc1cnc2ccccc2c1` [Example 241, 2-((1R,2R,3S)-2-amino-3-fluorocyclohexylamino)-4-(quinolin-3-ylamino)pyrimidine-5-carboxamide] belongs 100 to 1000 nM.

For the compound `CC1=C[C@@H](Nc2ncc(C(N)=O)c(Nc3cccc(-n4nccn4)c3)n2)CN1` [Example 227], the half-inhibitory concentration (IC50) was in the range of 100 to 1000 nM. As for `CC(C)[C@@H](Nc1ncc(C(N)=O)c(Nc2ccc3cccnc3c2)n1)C(N)=O` [Example 77, (R)-2-(1-amino-3-methyl-1-oxobutan-2-ylamino)-4-(quinolin-7-ylamino)pyrimidine-5-carboxamide], the figure is 100 to 1000 nM; as for `N#CCN[C@H]1CCCC[C@H]1Nc1ncc(C(N)=O)c(Nc2cccc(-n3nccn3)c2)n1` [Example 11, 4-(3-(2H-1,2,3-triazol-2-yl)phenylamino)-2-((1R,2S)-2-(cyanomethylamino)cyclohexylamino)pyrimidine-5-carboxamide], 100 to 1000 nM. As for `COC(=O)C(C)(C)c1cccc(Nc2nc(N[C@@H]3CCCC[C@@H]3N)ncc2C(N)=O)c1` [Example 201], the figure is 100 to 1000 nM. As for `CC(C)[C@@H](Nc1ncc(C(N)=O)c(Nc2cnc3ccccc3c2)n1)C1(N)CC1` [Example 158, (R)-2-(1-(1-aminocyclopropyl)-2-methylpropylamino)-4-(quinolin-3-ylamino)pyrimidine-5-carboxamide], the figure is 1 to 10 nM. As for `CCOC(=O)[C@@H]1CC[C@@H](Nc2ncc(C(N)=O)c(Nc3cccc(C)c3)n2)[C@@H](N)C1` (racemic) [Example 188, (1R,3S,4R)-ethyl 3-amino-4-(5-carbamoyl-4-(m-tolylamino)pyrimidin-2-ylamino)cyclohexanecarboxylate], the IC50 fell in the range of 10 to 100 nM.

The values are drawn from US20140323418A1, “SELECTIVE KINASE INHIBITORS” (PORTOLA PHARMACEUTICALS, INC., priority 2011, published 2014).
